Where two headings read alike, the source gives them in different places.
Target: human muscarinic acetylcholine M3 receptor (M3-ACh) (Homo sapiens, UniProt P20309)
Test: M3 Receptor Activity Assay: competition binding of [3H]N-methyl scopolamine, SPA format
[1] = competition binding of [3H]NMS at 0.2 nM to CHO-K1 cell membranes expressing human M3 receptor, 16 hours at room temperature, read-out: pIC50 (converted)

human muscarinic acetylcholine M3 receptor (M3-ACh), sequence (P20309 whole entry): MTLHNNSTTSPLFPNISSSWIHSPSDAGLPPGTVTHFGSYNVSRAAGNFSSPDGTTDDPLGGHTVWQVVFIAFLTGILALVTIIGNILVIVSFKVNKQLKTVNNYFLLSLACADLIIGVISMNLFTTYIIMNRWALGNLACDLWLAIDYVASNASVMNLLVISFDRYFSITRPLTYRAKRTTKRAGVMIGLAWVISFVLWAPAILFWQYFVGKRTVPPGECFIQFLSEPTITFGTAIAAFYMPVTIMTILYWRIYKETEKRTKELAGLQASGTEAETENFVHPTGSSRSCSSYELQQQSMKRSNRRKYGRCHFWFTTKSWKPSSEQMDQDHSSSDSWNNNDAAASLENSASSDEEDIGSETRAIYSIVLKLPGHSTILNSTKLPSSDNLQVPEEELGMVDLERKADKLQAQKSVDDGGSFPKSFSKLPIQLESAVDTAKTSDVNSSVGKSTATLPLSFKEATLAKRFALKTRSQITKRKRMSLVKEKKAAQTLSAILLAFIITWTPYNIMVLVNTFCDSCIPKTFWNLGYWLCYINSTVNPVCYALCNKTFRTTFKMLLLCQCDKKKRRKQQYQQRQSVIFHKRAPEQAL
Protocol: The assay was conducted in a final volume of 200 μL, in the presence of 1% (v/v) dimethyl sulphoxide (DMSO). Total binding of [^3H]NMS was determined in the absence of competing compound and non-specific binding of [3H]NMS was determined in the presence of 1 μM atropine. The plates were incubated for 16 hours at room temperature and then read on Wallac Microbeta™ using a normalised ^3H protocol.

| Structure (SMILES) | IC50 [1] | IC50 |
| --- | --- | --- |
| CC(C(=O)OC1CC[N+](C)(C)CC1)(c1ccc(Cl)cc1)C1CCCC1 (stereo not drawn) [Example 19, 4-{[2-(4-Chlorophenyl)-2-cyclopentylpropanoyl]oxy}-1,1-dimethylpiperidinium iodide] | 0.2 nM |  |
| CC(C(=O)OC1CC[N+](C)(C)CC1)(c1ccccc1)C1CC1 (stereo not drawn) [Example 3, 4-[(2-Cyclopropyl-2-phenylpropanoyl)oxy]-1,1-dimethylpiperidinium iodide] |  | 0.398 nM |
| Cc1ccc(C(C)(C(=O)OC2CC[N+](C)(C)CC2)C2CCCC2)s1 (stereo not drawn) [Example 9, 4-{[2-Cyclopentyl-2-(5-methyl-2-thienyl)propanoyl]oxy}-1,1-dimethylpiperidinium iodide] | 0.0794 nM |  |
